The values that follow come from patent US20260151375A1, “CDK2 INHIBITORS AND METHODS OF USING THE SAME” (Cedilla Therapeutics, Inc., priority 2022, published 2026).

In assay [1] the test system is mouse models of polycystic kidney disease. Conditions: Bukanov et al., Nature 2006; cited from earlier work.
For assay [2], the target named is T1, CDK2/Cyclin E1 (Homo sapiens, UniProt P24941).
T1 construct: purchased 14-475
Nature of the assay: Caliper Assay (LabChip EZ Reader mobility shift assay), inhibition of CDK2/Cyclin E1 activity. The assay is classed as biochemical. Particulars: 2.5 nM CDK2/Cyclin E1(14-475), 100 μM ATP, 30 min preincubation; read-out: Caliper Assay (CDK2/CCNE1): IC50. The essentials: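 Compounds were preincubated 30 min with CDK2/Cyclin E1(14-475), then run for 100 min with 2.5 nM enzyme, 100 μM ATP and 1.5 μM 5-FAM-QSPKKG peptide in HEPES pH 7.5 (final). Reactions were EDTA-stopped and substrate-to-product conversion read by mobility shift. IC50 came from a four-parameter fit.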

In assay [3] the target is T1, CDK2/Cyclin E1. Nature of the assay: ADPGLO (CDK2/E1-37 C), ADP-Glo Luminescent Kinase Assay. The assay is classed as biochemical. Conditions: 0.18 nM CDK2/Cyclin E1, 100 μM ATP, Histone H1, 37° C. The essentials:
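Human CDK2/Cyclin E1 preincubated with inhibitor 60 min at 37 °C, then reacted 90 min at 37 °C with final 0.18 nM enzyme, 100 μM ATP, 1.5 μM Histone H1 in HEPES pH 7.5 buffer. ADP formed read by ADP-Glo luminescence; IC50 from four-parameter fit.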
(ADP-Glo turns the ADP formed in a reaction into a luminescent signal.)

For the next assay, the system named is Kuramochi cells. As to the kind of experiment: IncuCyte Kuramochi Assay (cell proliferation). The class given is cell-based. Particulars: Kuramochi cells labeled with mApple-H2B, cell count, read-out: IncuCyte - Kuramochi RB-WT: IC50. Put shortly:
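GI50 came from dose-response fits of cell-count fold change between 0 and 72 h, normalized to DMSO controls. Counts were fluorescent nuclei from live-cell images over a 10-point, ½ log series starting at 20 μM.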

The structures appear in SMILES notation. Where a name gives a salt, the structure may show the parent alone. Read-outs that look alike come from different tables or passages of the source.

Regarding `CC[C@H](CO)Nc1nc(NCc2ccccc2)c2ncn(C(C)C)c2n1` [roscovitine], in assay [1], the “arrest of cystic kidney disease” value is reported as “effective arrest of cystic kidney disease”.

`O=C(c1ccn[nH]1)N1CC(c2nnc(C(F)(F)c3ccc(Cl)c(Cl)c3)o2)C2(CN(CC3CCCO3)C2)C1` (stereo not shown) [I-139, (8-(5-((3,4-dichlorophenyl)difluoromethyl)-1,3,4-oxadiazol-2-yl)-2-((tetrahydrofuran-2-yl)methyl)-2,6-diazaspiro[3.4]octan-6-yl)(1H-pyrazol-5-yl)methanone formate]: the figures for the IC50 on CDK2/Cyclin E1 [2], on CDK2/Cyclin E1 [3] and with Kuramochi cells (72 h) were > 100 µM, > 100 µM and > 10 µM, respectively.

As for `O=C(c1[nH]ncc1C(F)(F)F)N1CC(c2nnc(C(F)(F)c3ccc(Cl)c(Cl)c3)o2)C2(CN(CC3CCCO3)C2)C1` (stereo not shown) [I-136], the values for the IC50 at CDK2/Cyclin E1 [2], against CDK2/Cyclin E1 [3] and in the assay on Kuramochi cells (72 h) were > 100 µM, > 100 µM and > 10 µM, respectively.

On to `CC(c1nc(C2CN(C(=O)c3cncs3)CC23CN(C(=O)[C@H]2CC2(C)C)C3)no1)n1ccc(C2CCCC2)n1` (single isomer, unassigned) [I-36 3rd], for which the IC50 was 0.01 to 0.1 µM at CDK2/Cyclin E1 [2], ≤ 0.5 µM against CDK2/Cyclin E1 [3] and > 10 µM with Kuramochi cells (72 hours).

Regarding `CC(c1nc(C2CN(C(=O)c3cncs3)CC23CN(C(=O)[C@H]2CC2(C)C)C3)no1)n1ccc(C2CCCC2)n1` (single isomer, unassigned) [I-36 2nd], the IC50 on CDK2/Cyclin E1 [2] was 1 to 10 µM; against CDK2/Cyclin E1 [3] it was > 10 µM; in the assay with Kuramochi cells (72 hours) it was > 10 µM.

As for `O=C(c1cn[nH]c1C(F)(F)F)N1CC(c2nnc(C(F)(F)c3ccc(Cl)c(Cl)c3)o2)C2(CN(CC3CCCO3)C2)C1` (stereo not shown) [I-141], the results for the IC50 at CDK2/Cyclin E1 [2], at CDK2/Cyclin E1 [3] and in the assay on Kuramochi cells (72 h) were > 100 µM, > 10 µM and > 10 µM, respectively.

`CC(c1nc(C2CN(C(=O)c3cnc(O)cn3)CC23CN(C(=O)[C@H]2CC2(F)F)C3)no1)n1ccc(C2CCCC2)n1` (stereo partly drawn) [I-134, (8-(5-(1-(3-cyclopentyl-1H-pyrazol-1-yl)ethyl)-1,2,4-oxadiazol-3-yl)-2-((R)-2,2-difluorocyclopropane-1-carbonyl)-2,6-diazaspiro[3.4]octan-6-yl)(5-hydroxypyrazin-2-yl)methanone]: the IC50 is 0.1 to 1 µM at CDK2/Cyclin E1 [2], 0.5 to 5 µM at CDK2/Cyclin E1 [3] and > 10 µM in the assay on Kuramochi cells (72 h).

With `CC(c1nc(C2CN(C(=O)c3cnn(Cc4ccc(C(=O)O)cc4)c3)CC23CN(C(=O)[C@H]2CC2(C)C)C3)no1)n1ccc(C2CCCC2)n1` (stereo partly shown) [I-127], the figures for the IC50 at CDK2/Cyclin E1 [2], at CDK2/Cyclin E1 [3] and with Kuramochi cells (72 h) were 0.1 to 1 µM, 5 to 10 µM and > 10 µM, respectively.

As for `O=C(c1nccnc1O)N1CC(c2nnc(C(F)(F)c3ccc(Cl)c(Cl)c3)o2)C2(CN(CC3CCCO3)C2)C1` (stereo not shown) [I-135], the IC50 is > 100 µM on CDK2/Cyclin E1 [2], > 100 µM at CDK2/Cyclin E1 [3] and > 10 µM with Kuramochi cells (72 h).

For `CC(c1nc(C2CN(C(=O)c3cnn(Cc4ccc(C#N)cc4)c3)CC23CN(C(=O)[C@H]2CC2(C)C)C3)no1)n1ccc(C2CCCC2)n1` (stereo partly drawn) [I-133, 4-((4-(8-(5-(1-(3-cyclopentyl-1H-pyrazol-1-yl)ethyl)-1,2,4-oxadiazol-3-yl)-2-((S)-2,2-dimethylcyclopropane-1-carbonyl)-2,6-diazaspiro[3.4]octane-6-carbonyl)-1H-pyrazol-1-yl)methyl)benzonitrile], the IC50 on CDK2/Cyclin E1 [2] is ≤ 0.01 µM; against CDK2/Cyclin E1 [3], ≤ 0.5 µM; in the assay on Kuramochi cells (72 h), 0.5 to 5 µM.
